What follows are molecules tested against T1, HDAC6 enzyme (Homo sapiens, UniProt Q9UBN7) (assay: HDAC6 enzyme inhibitory assay (HDAC-Glo I/II Assay kit)). Details: wells without enzyme = 100% inhibition, 10 µM.
T1 construct: HDAC6 enzyme prepared by transducing full length HDAC6 gene into Sf-9 insect cells; GST; purchased SignalChem; host or cells: Sf-9 insect cells
T1 sequence (Q9UBN7 1-1215): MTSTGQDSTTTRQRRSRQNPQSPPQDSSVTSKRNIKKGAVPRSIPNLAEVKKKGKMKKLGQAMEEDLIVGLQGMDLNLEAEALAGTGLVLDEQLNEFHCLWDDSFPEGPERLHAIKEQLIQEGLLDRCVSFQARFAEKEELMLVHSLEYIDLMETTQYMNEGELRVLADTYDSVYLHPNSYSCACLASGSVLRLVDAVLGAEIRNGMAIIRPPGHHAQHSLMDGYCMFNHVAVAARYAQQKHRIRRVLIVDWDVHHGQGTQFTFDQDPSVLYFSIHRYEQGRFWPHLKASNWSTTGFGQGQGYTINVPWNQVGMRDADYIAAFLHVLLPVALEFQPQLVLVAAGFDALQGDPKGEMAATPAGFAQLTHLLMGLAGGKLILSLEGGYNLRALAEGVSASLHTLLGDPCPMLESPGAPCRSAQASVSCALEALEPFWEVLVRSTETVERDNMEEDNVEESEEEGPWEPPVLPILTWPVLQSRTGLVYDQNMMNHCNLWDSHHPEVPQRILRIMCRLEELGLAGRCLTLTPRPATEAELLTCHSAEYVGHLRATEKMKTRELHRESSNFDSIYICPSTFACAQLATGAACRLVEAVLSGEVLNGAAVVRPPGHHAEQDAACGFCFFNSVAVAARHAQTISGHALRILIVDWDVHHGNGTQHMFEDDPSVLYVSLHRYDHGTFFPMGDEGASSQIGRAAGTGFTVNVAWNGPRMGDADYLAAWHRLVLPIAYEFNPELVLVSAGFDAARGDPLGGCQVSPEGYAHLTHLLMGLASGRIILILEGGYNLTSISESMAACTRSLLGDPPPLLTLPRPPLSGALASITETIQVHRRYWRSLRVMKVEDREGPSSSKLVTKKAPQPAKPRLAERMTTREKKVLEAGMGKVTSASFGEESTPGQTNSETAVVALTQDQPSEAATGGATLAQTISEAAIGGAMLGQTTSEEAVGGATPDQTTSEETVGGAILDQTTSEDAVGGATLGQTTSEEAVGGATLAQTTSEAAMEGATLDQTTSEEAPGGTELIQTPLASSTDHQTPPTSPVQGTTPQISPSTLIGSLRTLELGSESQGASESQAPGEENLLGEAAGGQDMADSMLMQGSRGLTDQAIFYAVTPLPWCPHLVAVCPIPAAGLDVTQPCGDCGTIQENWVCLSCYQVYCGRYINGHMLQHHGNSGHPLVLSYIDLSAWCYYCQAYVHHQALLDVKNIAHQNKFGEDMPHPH
Assay type: biochemical
Method in brief: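 Full-length GST-purified HDAC6 from Sf-9 cells preincubated with compound 60 min at room temperature in Tris-HCl pH 7.5 buffer with MgCl2, KCl, NaCl, glutathione, Tween-20. Substrate-developer reaction 20 min, luminescence read; no-enzyme wells set as 100% inhibition.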

HDAC6 inhibitory rate (%) (10 μM)	SMILES
96	O=C1c2cc(-c3nnc(C(F)F)o3)ccc2CN1[C@H](C1CC1)[C@@H](O)c1ncccn1 (single isomer, unassigned) [Example 74, 2-[(1R*,2R*)-1-cyclopropyl-2-hydroxy-2-(pyrimidin-2-yl)ethyl]-6-[5-(difluoromethyl)-1,3,4-oxadiazol-2-yl]-2,3-dihydro-1H-isoindol-1-one]
99	O=C1c2cc(-c3nnc(C(F)F)o3)ccc2CN1[C@H](c1ccccn1)[C@@H](O)c1ccc(C(F)(F)F)cn1 (single isomer, unassigned) [Example 105, 6-[5-(difluoromethyl)-1,3,4-oxadiazol-2-yl]-2-{(1R*,2R*)-2-hydroxy-1-(pyridin-2-yl)-2-[5-(trifluoromethyl)pyridin-2-yl]ethyl}-2,3-dihydro-1H-isoindol-1-one]

Same assay, conditions: wells without enzyme = 100% inhibition, read-out: HDAC6 inhibitory rate (%) (10 μM)

inhibition at 10 µM [%]	SMILES
101	O=C1c2cc(-c3nnc(C(F)F)o3)ccc2CN1[C@H](c1ncccn1)[C@@H](O)c1ccc(F)cc1 (racemic) [Example 134, 6-[5-(difluoromethyl)-1,3,4-oxadiazol-2-yl]-2-[(1RS,2SR)-2-(4-fluorophenyl)-2-hydroxy-1-(pyrimidin-2-yl)ethyl]-2,3-dihydro-1H-isoindol-1-one]
100	O=C1c2cc(-c3nnc(C(F)F)o3)ccc2CN1[C@H](C1CCOCC1)[C@@H](O)c1cc(F)cc(Cl)c1 (racemic) [Example 106, 2-[(1RS,2SR)-2-(3-chloro-5-fluorophenyl)-2-hydroxy-1-(oxan-4-yl)ethyl]-6-[5-(difluoromethyl)-1,3,4-oxadiazol-2-yl]-2,3-dihydro-1H-isoindol-1-one]
99	O=C1c2cc(-c3nnc(C(F)F)o3)ccc2CN1[C@H](c1cccnn1)[C@@H](O)c1ccc(Cl)cc1 (single isomer, unassigned) [Example 111, 2-[(1R*,2S*)-2-(4-chlorophenyl)-2-hydroxy-1-(pyridazin-3-yl)ethyl]-6-[5-(difluoromethyl)-1,3,4-oxadiazol-2-yl]-2,3-dihydro-1H-isoindol-1-one]
100	O=C1c2cc(-c3nnc(C(F)F)o3)ccc2CN1[C@H](c1ccc(F)nc1)[C@@H](O)c1ccc(F)c(F)c1 (racemic) [Example 56, 6-[5-(difluoromethyl)-1,3,4-oxadiazol-2-yl]-2-[(1RS,2SR)-2-(3,4-difluorophenyl)-1-(6-fluoropyridin-3-yl)-2-hydroxyethyl]-2,3-dihydro-1H-isoindol-1-one]
99	O=C1c2cc(-c3nnc(C(F)F)o3)ccc2CN1[C@H](c1cnccn1)[C@@H](O)c1ccccc1 (single isomer, unassigned) [Example 127, 6-[5-(difluoromethyl)-1,3,4-oxadiazol-2-yl]-2-[(1R*,2S*)-2-hydroxy-2-phenyl-1-(pyrazin-2-yl)ethyl]-2,3-dihydro-1H-isoindol-1-one]

More lines, now with the values behind:

SMILES	inhibition at 10 µM [%]
O=C1c2cc(-c3nnc(C(F)F)o3)ccc2CN1[C@H](c1ccc(C(F)(F)F)nc1)[C@@H](O)c1ccccc1 (racemic) [Example 17, 6-[5-(difluoromethyl)-1,3,4-oxadiazol-2-yl]-2-{(1RS,2SR)-2-hydroxy-2-phenyl-1-[6-(trifluoromethyl)pyridin-3-yl]ethyl}-2,3-dihydro-1H-isoindol-1-one]	100
O=C1c2cc(-c3nnc(C(F)F)o3)ccc2CN1[C@H](c1ccc(F)cc1)[C@H](O)c1cccc(F)c1 (racemic) [Example 147, 6-[5-(difluoromethyl)-1,3,4-oxadiazol-2-yl]-2-[(1RS,2RS)-2-(3-fluorophenyl)-1-(4-fluorophenyl)-2-hydroxyethyl]-2,3-dihydro-1H-isoindol-1-one]	99
O=C1c2cc(-c3nnc(C(F)F)o3)ccc2CN1[C@@H](c1ccccn1)[C@H](O)c1cccc(F)n1 [Example 8, 6-[5-(difluoromethyl)-1,3,4-oxadiazol-2-yl]-2-[(1S,2S)-2-(6-fluoropyridin-2-yl)-2-hydroxy-1-(pyridin-2-yl)ethyl]-2,3-dihydro-1H-isoindol-1-one]	99
O=C1c2cc(-c3nnc(C(F)F)o3)ccc2CN1[C@H](c1ccc(F)cc1)[C@@H](O)c1ccccc1 (single isomer, unassigned) [Example 45, 6-[5-(difluoromethyl)-1,3,4-oxadiazol-2-yl]-2-[(1R*,2S*)-1-(4-fluorophenyl)-2-hydroxy-2-phenylethyl]-2,3-dihydro-1H-isoindol-1-one]	100
O=C1c2cc(-c3nnc(C(F)F)o3)ccc2CN1[C@H](c1cnccn1)[C@@H](O)c1ccc(F)c(F)c1 (single isomer, unassigned) [Example 85, 6-[5-(difluoromethyl)-1,3,4-oxadiazol-2-yl]-2-[(1R*,2S*)-2-(3,4-difluorophenyl)-2-hydroxy-1-(pyrazin-2-yl)ethyl]-2,3-dihydro-1H-isoindol-1-one]	100
O=C1c2cc(-c3nnc(C(F)F)o3)ccc2CN1[C@H](c1cccc(F)c1)[C@@H](O)c1ccc(F)cc1 (racemic) [Example 21, 6-[5-(difluoromethyl)-1,3,4-oxadiazol-2-yl]-2-[(1RS,2SR)-1-(3-fluorophenyl)-2-(4-fluorophenyl)-2-hydroxyethyl]-2,3-dihydro-1H-isoindol-1-one]	100
O=C1c2cc(-c3nnc(C(F)F)o3)ccc2CN1[C@H](C1CCOCC1)[C@@H](O)c1ccc(Cl)cc1 (single isomer, unassigned) [Example 83, 2-[(1R*,2S*)-2-(4-chlorophenyl)-2-hydroxy-1-(oxan-4-yl)ethyl]-6-[5-(difluoromethyl)-1,3,4-oxadiazol-2-yl]-2,3-dihydro-1H-isoindol-1-one]	101
O=C1c2cc(-c3nnc(C(F)F)o3)ccc2CN1[C@H](c1cc(F)c(F)c(F)c1)[C@@H](O)c1ccccn1 (racemic) [Example 15, 6-[5-(difluoromethyl)-1,3,4-oxadiazol-2-yl]-2-[(1RS,2RS)-2-hydroxy-2-(pyridin-2-yl)-1-(3,4,5-trifluorophenyl)ethyl]-2,3-dihydro-1H-isoindol-1-one]	99
O=C1c2cc(-c3nnc(C(F)F)o3)ccc2CN1[C@H](c1ccccn1)[C@@H](O)c1cccc(Cl)n1 (single isomer, unassigned) [Example 114, 2-[(1R*,2R*)-2-(6-chloropyridin-2-yl)-2-hydroxy-1-(pyridin-2-yl)ethyl]-6-[5-(difluoromethyl)-1,3,4-oxadiazol-2-yl]-2,3-dihydro-1H-isoindol-1-one]	99
O=C1c2cc(-c3nnc(C(F)F)o3)ccc2CN1[C@H](c1cccnn1)[C@@H](O)c1ccc(Cl)cc1 (relative stereo) [Example 110, 2-[(1R*,2S)-2-(4-chlorophenyl)-2-hydroxy-1-(pyridazin-3-yl)ethyl]-6-[5-(difluoromethyl)-1,3,4-oxadiazol-2-yl]-2,3-dihydro-1H-isoindol-1-one]	100
O=C1c2cc(-c3nnc(C(F)F)o3)ccc2CN1[C@H](C1CCOCC1)[C@@H](O)c1ccc(F)cc1 [Example 72, 6-[5-(difluoromethyl)-1,3,4-oxadiazol-2-yl]-2-[(1R,2S)-2-(4-fluorophenyl)-2-hydroxy-1-(oxan-4-yl)ethyl]-2,3-dihydro-1H-isoindol-1-one]	100

Source: patent US12384770B2, “Heterocyclic compound” (Takeda Pharmaceutical Company Limited, priority 2019, dated 2025)
